# Test results reported in patent publication US12226401B2, “Molecular genetic approach to treatment and diagnosis of alcohol and drug dependence” (priority 2010, dated 2025).
# Tested on: alcohol dependent individuals
# Assay: Randomized, double-blind, placebo-controlled, 12-week clinical trial of ondansetron vs placebo in alcohol dependent individuals by genotype: drinks per drinking day (DDD)
# Type: in vivo, human
# Conditions: for Least Squares Mean of Drinks per Drinking Days, Estimated Mean: Table 4B; for Least Squares Mean Difference, Drinks per Drinking Days, OND vs. Placebo: all patients (treatment main effect); for Log mean Drinks/Drinking Day: natural log
# Procedure: Two hundred and seventy eight male and female alcohol dependent individuals were entered into a randomized, double-blind, placebo-controlled, 12-week clinical trial. These individuals were divided into TT vs. […] The polymorphisms in 3''-UTR region of a gene may affect mRNA expression levels by altering their stability. […] Data was transformed to its natural log to correct for skewness. […] In total, ten SNPs in 5HT3a and nine SNPs in 5HT3b genes were analyzed in this study: […]
structure (smiles),measurement,setting,value
"Cc1nccn1CC1CCc2c(c3ccccc3n2C)C1=O (stereo not drawn) [ondansetron, 9-methyl-3-[(2-methyl-1H-imidazol-1-yl)methyl]-1,2,3,9-tetrahydrocarbazol-4-one]","Least Squares Mean, Drinks per Drinking Days",RS17614942 CC,6.03
same,"Least Squares Mean, Drinks per Drinking Days",RS17614942 CC/AA,6.09
same,"Estimate, OND vs. Placebo, drinks per drinking days (DDD)","TT + AA (RS1042173, RS1176719)",−7.12 DDD
same,"Estimate, OND vs. Placebo, drinks per drinking days (DDD)","TT + AC (RS1042173, RS17614942)",−3.37 DDD
same,"Estimate, OND vs. Placebo, drinks per drinking days (DDD)","TT + AG (RS1042173, RS1150226)",−2.00 DDD
same,"Estimate, OND vs. Placebo, drinks per drinking days (DDD)","TT + AG + AC (RS1042173, RS1150226, RS17614942)",−2.24 DDD
same,"Estimate, OND vs. Placebo, drinks per drinking days (DDD)","TT + GG (RS1042173, RS1176713)",−6.42 DDD
same,"Estimate, OND vs. Placebo, drinks per drinking days (DDD)","TT or AA or AC (RS1042173, RS1176719, RS17614942)",−1.08 DDD
same,"Estimate, OND vs. Placebo, drinks per drinking days (DDD)","TT or AC (RS1042173, RS17614942)",−1.07 DDD
same,"Estimate, OND vs. Placebo, drinks per drinking days (DDD)","TT or AG (RS1042173, RS1150226)",−1.02 DDD
same,"Estimate, OND vs. Placebo, drinks per drinking days (DDD)","TT or AG or AC (RS1042173, RS1150226, RS17614942)",−0.99 DDD
same,"Estimate, OND vs. Placebo, drinks per drinking days (DDD)","TT or AG or GG (RS1042173, RS1150226, RS1176713)",−1.12 DDD
same,"Estimate, OND vs. Placebo, drinks per drinking days (DDD)","TT or GG (RS1042173, RS1176713)",−1.02 DDD
same,"Estimate, OND vs. Placebo, drinks per drinking days (DDD)","TT or GG or AC (RS1042173, RS1176713, RS17614942)",−1.12 DDD
same,"Least Squares Mean Difference, Estimated Mean Difference, AG vs. GG/AA","Table 3G, among OND-treated subjects, AG vs. GG/AA genotype",−1.90
same,"Least Squares Mean of Drinks per Drinking Days, Estimated Mean","Others (AA/GG and AA/CC), n = 112",6.12
same,"Least Squares Mean of Drinks per Drinking Days, Estimated Mean","RS1150226 AG or RS17614942 AC carriers, n = 23",4.19
same,"Least Squares Mean of Drinks per Drinking Days, Estimated Mean","all OND subjects, RS1150226 (AG) or RS17614942 (AC) analysis",5.16
same,"Least Squares Mean Difference between Treatment and Placebo, Estimated Mean Difference","Table 4C, OND vs. Placebo among AG or/and AC (RS1150226 AG, RS17614942 AC)",−2.12
same,"Least Squares Mean Difference between Treatment and Placebo, Estimated Mean Difference","Table 4C, OND vs. Placebo, all genotypes (main effect)",−0.99
same,"Least Squares Mean Difference, Estimated Mean Difference, (AG or AC) vs. Others","Table 4C, among OND-treated subjects, (AG or AC) vs. Others",−1.91
same,"Least Squares Mean, Drinks per Drinking Days","all OND patients, model Comb (LL + TT or AC or AG) vs Others",5.32
same,"Least Squares Mean, Drinks per Drinking Days","all OND patients, model RS1150226 (GG, AG/AA)",5.15
same,"Least Squares Mean, Drinks per Drinking Days","all OND patients, model RS1150226 (GG/AA, AG)",5.13
same,"Least Squares Mean, Drinks per Drinking Days","all OND patients, model RS17614942 (CC, AC/AA)",4.96
same,"Least Squares Mean, Drinks per Drinking Days","all OND patients, model RS17614942 (CC/AA, AC)",4.98
same,DDD reductions with OND,"all four variants (LL, TT, AG, AC)",more than 4 DDD
same,"Least Squares Mean Difference, Drinks per Drinking Days, OND vs. Placebo","model RS17614942 (CC, AC/AA)",−1.20
same,"Least Squares Mean Difference, Drinks per Drinking Days, OND vs. Placebo","model RS17614942 (CC/AA, AC)",−1.30
same,"Drinks per Drinking Days, Least Squares Estimated Mean Difference","among AC/AA: OND vs. Placebo, model RS17614942",−2.04
same,"Drinks per Drinking Days, Least Squares Estimated Mean Difference","among AC/AA: OND vs. Placebo, model RS17614942 and 5-HTTLPR",−2.13
same,"Drinks per Drinking Days, Least Squares Estimated Mean Difference","among CT/TT: OND vs. Placebo, model RS4938056 and 5-HTTLPR",−0.81
same,"Drinks per Drinking Days, Least Squares Estimated Mean Difference","among LL: OND vs. Placebo, model 5-HTTLPR and RS1062613",−1.29
same,"Drinks per Drinking Days, Least Squares Estimated Mean Difference","among LL: OND vs. Placebo, model 5-HTTLPR and RS1150226",−1.47
same,"Drinks per Drinking Days, Least Squares Estimated Mean Difference","among LL: OND vs. Placebo, model RS17614942 and 5-HTTLPR",−1.86
same,"Drinks per Drinking Days, Least Squares Estimated Mean Difference","among OND: AC/AA vs. CC, model RS17614942",−1.60
same,"Drinks per Drinking Days, Least Squares Estimated Mean Difference","among OND: AC/AA vs. CC, model RS17614942 and 5-HTTLPR",−1.45
same,"Drinks per Drinking Days, Least Squares Estimated Mean Difference","among OND: AG/AA vs. GG, model 5-HTTLPR and RS1150226",−1.25
same,"Drinks per Drinking Days, Least Squares Estimated Mean Difference","among OND: AG/AA vs. GG, model RS1150226",−1.47
same,"Drinks per Drinking Days, Least Squares Estimated Mean Difference","among OND: CT/TT vs. CC, model RS4938056",−1.24
same,"Drinks per Drinking Days, Least Squares Estimated Mean Difference","among OND: CT/TT vs. CC, model RS4938056 and 5-HTTLPR",−1.13
same,"Drinks per Drinking Days, Least Squares Estimated Mean Difference","among OND: LL + CT/TT vs. Others, simplified model",−1.64
same,"Drinks per Drinking Days, Least Squares Estimated Mean Difference","among OND: LL vs. LS/SS, model 5-HTTLPR and RS1062613",−1.39
same,"Drinks per Drinking Days, Least Squares Estimated Mean Difference","among OND: LL vs. LS/SS, model 5-HTTLPR and RS1150226",−1.27
same,"Drinks per Drinking Days, Least Squares Estimated Mean Difference","among OND: LL vs. LS/SS, model RS4938056 and 5-HTTLPR",−1.37
same,"Drinks per Drinking Days, Least Squares Estimated Mean Difference","among OND: LL vs. LS/SS, model RS17614942 and 5-HTTLPR",−1.33
same,"Drinks per Drinking Days, Least Squares Estimated Mean Difference","among OND: TC/CC vs. TT, model 5-HTTLPR and RS1062613",−1.05
same,"Drinks per Drinking Days, Least Squares Estimated Mean Difference","among OND: TC/CC vs. TT, model RS1062613",−1.06
same,"Drinks per Drinking Days, Least Squares Estimated Mean Difference","among TC/CC: OND vs. Placebo, model 5-HTTLPR and RS1062613",−1.10
same,"Drinks per Drinking Days, Least Squares Estimated Mean Difference","among TC/CC: OND vs. Placebo, model RS1062613",−0.90
same,"DDD reduction, OND compared to placebo","any one of three variants: 5-HTTLPR [LL], RS1150226 [AG], RS17614942 [AC]",at least 1.4 DDD
same,"DDD reduction, OND compared to placebo","any two of the three variants (LL, AG, AC)",at least 2.4 DDD
same,DDD reductions with OND,"any two of three variants: 5-HTTLPR (LL), RS1042173 (TT), RS1176713 (GG)",at least 2 DDD
same,DDD reductions with OND,either 5-HTTLPR (LL) or RS1176713 (GG),at least 1.4 DDD
same,DDD reductions with OND,"either one or two or three or four of the four variants (LL, TT, AG, AC)",at least 0.9 DDD
same,DDD reductions with OND,"either three of the four variants (LL, TT, AG, AC)",more than 2 DDD
same,DDD reductions with OND,"either two of four variants: 5-HTTLPR (LL), RS1042173 (TT), RS1150226 (AG), RS17614942 (AC)",at least 2 DDD
same,"DDD reductions, OND compared to placebo","one or two of the three variants (LL, AG, AC)",about 1.4 DDD
same,Response to Ondansetron treatment,"one or two or three of 5-HTTLPR [LL], RS1150226 [AG], RS17614942 [AC], 120 patients",seemed to respond
same,"DDD reductions, OND compared to placebo","one or two or three of the three variants (LL, AG, AC)",at least 1.4 DDD
same,Response to OND treatment,"one or two or three or four of 5-HTTLPR (LL), RS1042173 (TT), RS1176719 (AA), RS17614942 (AC)",likely to respond
same,DDD reductions with OND,"one, or two or three of the three variants (LL, TT, RS1176713 GG)",at least 0.9 DDD
same,"DDD reduction, OND compared with placebo groups","patients who had LL+TT or RS17614942 (AC) or RS1150226 (AG), 84 of 273 patients",at least 1.75 DDD
same,"Estimate, OND vs. Placebo, drinks per drinking days (DDD)",patients with 5-HTTLPR (LL),−1.41 DDD
same,"DDD reductions, OND compared to placebo",patients with either 5-HTTLPR (LL) or RS1150226 (AG) or RS17614942 (AC),at least 1.4 DDD
same,Log mean Drinks/Drinking Day,printed 'TT/GG and group' (rs1042173),1.68±0.07 Drinks/Drinking Day
same,Estimated mean DDD difference for OND vs. placebo,"regardless of rs17614942 genotypes, 5HT3b cohort",−1.15
same,"Log mean difference in Drinks/Drinking Day, TTond vs TG/GG ond","rs1042173, among ondansetron recipients, 95% CI -0.53 to -0.13, p=0.002",−0.33
same,"Reducing severe drinking vs placebo (Log Drinks/Drinking day, mixed model)","rs1042173 TT genotype, ondansetron 4 mcg/kg, p=0.028",more beneficial than placebo
same,Log mean Drinks/Drinking Day,rs1042173 TT group that received ondansetron 4 mcg/kg,1.36±0.10 Drinks/Drinking Day
same,"Reduction of DDD by ondansetron, C-carriers compared with TT subjects",rs1062613 (5HT3a),1.17 sd
same,"Reduction of DDD by ondansetron, AG/AA compared to GG subjects",rs1150226 (5HT3a),1.74 sd
same,"Reduction of DDD by ondansetron, T-carriers compared with CC subjects",rs4938056 (5HT3b),1.30 sd
same,"Reduction in DDD, AC/AA treated with ondansetron compared to CC subjects",rs17614942 (5HT3b),1.97 sd
same,"Least Squares Mean Difference, Drinks per Drinking Days, AG/AA vs. GG","second AG/AA vs. GG line printed under Among OND, RS1150226",−0.98
same,"DDD reduction, OND compared to placebo","the three variants (LL, AG, AC)",at least 4 DDD
same,DDD reductions with OND,"the three variants (LL, TT, RS1176713 GG)",at least 7 DDD
same,Reduction of DDD by ondansetron compared to the placebo,within AC/AA group of rs17614942,2.41 sd
same,Reduction of DDD by ondansetron compared to the placebo,within AG/AA group of rs1150226,1.57 sd
same,"Least square Mean difference in DDD, ondansetron vs placebo",within LL+AC/AA group (5HTTLPR + rs17614942),3.6 sd
same,"Least square Mean difference in DDD, ondansetron vs placebo",within LL+CT/TT group (5HTTLPR + rs4938056),1.74 sd
